Assay results published in PubChem BioAssay AID330 (DTP/NCI, 2004).
Inconclusive results and toxic doses are left out. The calls were made as follows: active = survival T/C of 150% or more; inactive = T/C below 125% in these data.

System: P388 leukemia ip, CD2F1 mice, survival T/C
Assay: NCI In Vivo Anticancer Drug Screen. Data for tumor model P388 Leukemia (intraperitoneal) in CD2F1 (CDF1) mice
Details: endpoint: median survival time, schedule: Q01DX009 (ip), vehicle: distilled water + Tween-80 + alcohol, higher = longer survival
Method in brief: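 Mice carrying the transplanted tumor received test compound or vehicle. Survival was recorded in each group, and the value is the treated-group measurement divided by that of the vehicle-treated control group.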

Measured: T/C

Cc1cc(C(C)(C)C)c(O)c(C(C)(C)C)c1
inactive: dose: 100.0 mg/kg/injection 104 % of control | dose: 200.0 mg/kg/injection 102 % of control | dose: 400.0 mg/kg/injection 98 % of control
